Patent publication US10941116B2, “Crystalline forms of mesaconine and preparation methods therefor” (Gooddoctor Pharmaceutical Group Co., Ltd., priority 2018, dated 2021)

What was measured:
Format in all cases: physicochemical
[1] = Solubility test, Chinese pharmacopoeia 2015 edition, general notice; conditions: solvent: water
Source text: The crystalline form A of mesaconine was sampled and tested according to the method of solubility test in the Chinese pharmacopoeia (2015 edition, general notice).

[2] = Drug hygroscopicity test, Chinese Pharmacopoeia general rule 9103; conditions: for Percentage of weight increment(%): single batch
Protocol: The test was performed according to guiding principles for drug hygroscopicity test in Chinese Pharmacopoeia (general rule 9103, volume 4, 2015 edition).
According to the definition of hygroscopicity in Chinese Pharmacopoeia (general rule 9103, volume 4, 2015 edition): when the weight increment by hygroscopicity is less than 2% but not less than 0.2%, it has slight hygroscopicity. The weight increment of crystalline form A of mesaconine was 0.85% under the test conditions, which has slight hygroscopicity and good deliquescence resistance.

[3] = Influencing factors test (high temperature, high humidity, hard light irradiation), Chinese pharmacopoeia general rule 9001, analyzed by XRPD; conditions: open flat weighing bottle, 10 days
Protocol: In addition, the crystalline form A of mesaconine was sampled and tested for influencing factors according to the Guiding principle for stability test of raw materials of drugs and preparations (general rule 9001, the Chinese pharmacopoeia, 2015 edition).
High temperature test: the sample was placed in an open flat weighing bottle at 60° C. for 10 days. Then the sample was tested according to the key inspection items of stability test, and analyzed by X-ray powder diffraction.
High humidity test: the sample was placed in an open flat weighing bottle at 25° C. and 90% relative humidity for 10 days. Then the sample was tested according to the key inspection items of stability test, and analyzed by X-ray powder diffraction.
Hard light irradiation test: the sample was placed in an open flat weighing bottle for 10 days under the illuminance of 4500 lx. Then the sample was tested according to the key inspection items of stability test, and analyzed by X-ray powder diffraction.

[4] = Stability of crystalline form A of mesaconine by XRPD comparison (storage for 4 weeks; heating to 180° C.)
Protocol: After the samples of crystalline form A of mesaconine were placed at 25° C., 60% RH and 40° C., 75% RH for 4 weeks, it was performed XRPD test. The test result was compared with XRPD spectrum of comparative sample of crystalline form A of the mesaconine (XRPD spectrum of crystalline form A of mesaconine before stability test), and the results were shown in FIG. 4. Another sample of crystalline form A of mesaconine was heated to 180° C., and then was performed XRPD test. The test result was compared with XRPD spectrum of comparative sample of crystalline form A of the mesaconine (XRPD spectrum of crystalline form A of mesaconine before stability test), and the results were shown in FIG. 5.

[5] = Stability of crystalline form B of mesaconine by XRPD comparison after heating to 115° C.; conditions: heated to 115° C.
Protocol: Appropriate amount of crystalline form B of mesaconine was sampled and heated to 115° C., and then was performed XRPD test. The test result was compared with XRPD spectrum of comparative sample of crystalline form B of mesaconine (XRPD spectrum of crystalline form B of mesaconine before stability test), and the results were shown in FIG. 9.

Molecule | Solubility [1] | Hygroscopicity class ([2]; Chinese Pharmacopoeia definition) | Percentage of average weight increment(%) ([2]; hygroscopicity test, average of two batches) | Percentage of weight increment(%) ([2]; hygroscopicity test, listed as Sample 1) | Percentage of weight increment(%) ([2]; hygroscopicity test, listed as Sample 2) | Position and relative intensity of main XRPD diffraction peaks after high humidity test ([3]; 25° C., 90% relative humidity) | Position and relative intensity of main XRPD diffraction peaks after high temperature test ([3]; 60° C.) | Position and relative intensity of main XRPD diffraction peaks after hard light irradiation test ([3]; illuminance 4500 lx) | Crystalline form stability (XRPD main diffraction peaks) ([4]; 25° C., 60% RH for 4 weeks) | Crystalline form stability (XRPD main diffraction peaks) ([4]; 40° C., 75% RH for 4 weeks) | Crystalline form stability (XRPD main diffraction peaks) ([4]; heated to 180° C.) | Crystalline form stability (XRPD main diffraction peaks) [5]
COC[C@]12CN(C)[C@@H]3[C@@H]4[C@H](OC)[C@H]1[C@@]3([C@@H](OC)C[C@H]2O)[C@@H]1C[C@@]2(O)[C@H](O)[C@@H]1[C@]4(O)[C@@H](O)[C@@H]2OC [crystalline form A of mesaconine, N-methyl-1α,6α,16β,18-tetramethoxyl-4-methyl-aconite-3α,8β,13β,14α,15α-pentol] | easily soluble (1 g of solute can be dissolved in 1~10 ml of solvent) | slight hygroscopicity (when the weight increment by hygroscopicity is less than 2% but not less than 0.2%, it has slight hygroscopicity) | 0.85 | 0.85 | 0.84 | had not changed significantly | had not changed significantly | had not changed significantly | crystalline form did not change | crystalline form did not change | crystalline form did not change | 
N-methyl-1α,6α,16β,18-tetramethoxyl-4-methyl-aconite-3α,8β,13β,14α,15α-pentol [crystalline form B of mesaconine] |  |  |  |  |  |  |  |  |  |  |  | crystalline form did not change
